# Laboratory results: PubChem BioAssay AID180 (DTP/NCI, 2004)
# Several values for one entry are separate records, joined by “and”; a condition that tells them apart may be missing. Identical values can stand only once.
# Test system: BDF1 mice, Adenocarcinoma 755 s.c., tumor weight T/C
# Assay: NCI In Vivo Anticancer Drug Screen. Data for tumor model Adenocarcinoma 755 (subcutaneous) in B6D2F1 (BDF1) mice
# Settings: endpoint: mean tumor weight, higher = larger tumour
# Method: The antitumor activity of compounds was measured in mice bearing transplantable tumors. Survival or tumor size were measured and the results are expressed as the measurement made in the treated group (T) divided by the measurement made in the vehicle treated control group (C). The tumor model used in this assay is Adenocarcinoma 755 (subcutaneous) in B6D2F1 (BDF1) mice
# [1] = dose: 25.0 mg/kg/injection, schedule: Q01DX011 (ip), vehicle: methylcellulose (MC)
# [2] = dose: 225.0 mg/kg/injection, schedule: Q01DX011 (ip), vehicle: methylcellulose (MC)
# [3] = dose: 15.0 mg/kg/injection, schedule: Q01DX011 (ip), vehicle: methylcellulose (MC)
# [4] = dose: 31.0 mg/kg/injection, schedule: Q01DX011 (ip), vehicle: methylcellulose (MC)
# [5] = dose: 62.0 mg/kg/injection, schedule: Q01DX011 (ip), vehicle: methylcellulose (MC)
# [6] = dose: 30.0 mg/kg/injection, schedule: Q01DX011 (ip), vehicle: carboxymethylcellulose (CMC)
# [7] = dose: 60.0 mg/kg/injection, schedule: Q01DX011 (ip), vehicle: carboxymethylcellulose (CMC)
# [8] = dose: 113.0 mg/kg/injection, schedule: Q01DX011 (ip), vehicle: carboxymethylcellulose (CMC)
structure (smiles),measurement,setting,value
O=C(CCBr)N1CCC(CCC2CCN(C(=O)CCBr)CC2)CC1,T/C,[1],94 % of control
same,T/C,"dose: 75.0 mg/kg/injection, schedule: Q01DX011 (ip), vehicle: methylcellulose (MC)",68 % of control
same,T/C,[2],43 % of control
c1nc([N+]23CCC(CC2)CC3)c2[nH]cnc2n1,T/C,"dose: 12.5 mg/kg/injection, schedule: Q01DX011 (ip), vehicle: saline",101 % of control
same,T/C,"dose: 20.0 mg/kg/injection, schedule: Q01DX011 (ip), vehicle: saline",98 % of control
same,T/C,"dose: 25.0 mg/kg/injection, schedule: Q01DX011 (ip), vehicle: saline",56 % of control
same,T/C,"dose: 30.0 mg/kg/injection, schedule: Q01DX011 (ip), vehicle: saline",50 % of control
same,T/C,"dose: 40.0 mg/kg/injection, schedule: Q01DX011 (ip), vehicle: saline",41 % of control
same,T/C,"dose: 50.0 mg/kg/injection, schedule: Q01DX011 (ip), vehicle: saline",19 % of control and 29 % of control
O=[As]O,T/C,"dose: 0.12 mg/kg/injection, schedule: Q01DX011 (ip), vehicle: carboxymethylcellulose (CMC)",116 % of control
same,T/C,"dose: 0.25 mg/kg/injection, schedule: Q01DX011 (ip), vehicle: carboxymethylcellulose (CMC)",86 % of control
same,T/C,"dose: 0.5 mg/kg/injection, schedule: Q01DX011 (ip), vehicle: carboxymethylcellulose (CMC)",98 % of control
same,T/C,"dose: 1.0 mg/kg/injection, schedule: Q01DX011 (ip), vehicle: carboxymethylcellulose (CMC)",77 % of control
same,T/C,"dose: 1.63 mg/kg/injection, schedule: Q01DX011 (ip), vehicle: carboxymethylcellulose (CMC)",70 % of control
same,T/C,"dose: 2.0 mg/kg/injection, schedule: Q01DX011 (ip), vehicle: carboxymethylcellulose (CMC)",19 % of control
same,T/C,"dose: 2.0 mg/kg/injection, schedule: Q01DX011 (ip), vehicle: methylcellulose (MC)",66 % of control
same,T/C,"dose: 3.15 mg/kg/injection, schedule: Q01DX011 (ip), vehicle: carboxymethylcellulose (CMC)",124 % of control
same,T/C,"dose: 3.25 mg/kg/injection, schedule: Q01DX011 (ip), vehicle: carboxymethylcellulose (CMC)",72 % of control
same,T/C,"dose: 5.0 mg/kg/injection, schedule: Q01DX011 (ip), vehicle: carboxymethylcellulose (CMC)",21 % of control
same,T/C,"dose: 5.0 mg/kg/injection, schedule: Q01DX011 (ip), vehicle: methylcellulose (MC)",52 % of control
same,T/C,"dose: 6.3 mg/kg/injection, schedule: Q01DX011 (ip), vehicle: carboxymethylcellulose (CMC)",67 % of control
same,T/C,"dose: 8.66 mg/kg/injection, schedule: Q01DX011 (ip), vehicle: carboxymethylcellulose (CMC)",63 % of control and 70 % of control
same,T/C,"dose: 12.6 mg/kg/injection, schedule: Q01DX011 (ip), vehicle: carboxymethylcellulose (CMC)",67 % of control
same,T/C,"dose: 13.0 mg/kg/injection, schedule: Q01DX011 (ip), vehicle: carboxymethylcellulose (CMC)",28 % of control and 35 % of control
O=C(CCBr)NCNC(=O)CCBr,T/C,"dose: 28.0 mg/kg/injection, schedule: Q01DX011 (ip), vehicle: methylcellulose (MC)",56 % of control
same,T/C,"dose: 57.0 mg/kg/injection, schedule: Q01DX011 (ip), vehicle: methylcellulose (MC)",28 % of control
Cc1cc(Nc2ccccc2Br)nc(N)n1,T/C,[3],65 % of control
same,T/C,[4],69 % of control
same,T/C,[5],112 % of control
same,T/C,"dose: 125.0 mg/kg/injection, schedule: Q01DX011 (ip), vehicle: methylcellulose (MC)",78 % of control
same,T/C,"dose: 250.0 mg/kg/injection, schedule: Q01DX011 (ip), vehicle: methylcellulose (MC)",76 % of control
Cc1cc(C)c(/C=N/Nc2nc3c(c(=O)n(C)c(=O)n3C)n2C)c(C)c1,T/C,[6],68 % of control
same,T/C,[7],106 % of control
O=c1[nH]cnc2c1ncn2CCO,T/C,"dose: 43.75 mg/kg/injection, schedule: Q01DX011 (ip), vehicle: methylcellulose (MC)",40 % of control
same,T/C,"dose: 87.5 mg/kg/injection, schedule: Q01DX011 (ip), vehicle: methylcellulose (MC)",100 % of control
same,T/C,"dose: 175.0 mg/kg/injection, schedule: Q01DX011 (ip), vehicle: methylcellulose (MC)",123 % of control
same,T/C,"dose: 350.0 mg/kg/injection, schedule: Q01DX011 (ip), vehicle: methylcellulose (MC)",99 % of control
CC(=O)Nc1nc(Cl)c2ncn(C3CCCO3)c2n1 (stereo not drawn),T/C,[6],106 % of control
same,T/C,[7],38 % of control
same,T/C,"dose: 240.0 mg/kg/injection, schedule: Q01DX011 (ip), vehicle: carboxymethylcellulose (CMC)",19 % of control and 42 % of control
CC1(C)C(=O)CC[C@@]2(C)C1=CC[C@@H]1[C@@H]2CC[C@@]2(C)[C@H]1CC[C@]2(C)O,T/C,"dose: 25.0 mg/kg/injection, schedule: Q01DX011 (sc), vehicle: steriod suspending solution",105 % of control
same,T/C,"dose: 200.0 mg/kg/injection, schedule: Q01DX011 (sc), vehicle: steriod suspending solution",92 % of control
same,T/C,"dose: 400.0 mg/kg/injection, schedule: Q01DX011 (sc), vehicle: steriod suspending solution",87 % of control
CS(=O)(=O)OCCC(=O)NCCCCNC(=O)CCOS(C)(=O)=O,T/C,"dose: 56.0 mg/kg/injection, schedule: Q01DX011 (ip), vehicle: carboxymethylcellulose (CMC)",66 % of control
same,T/C,"dose: 56.0 mg/kg/injection, schedule: Q01DX011 (ip), vehicle: methylcellulose (MC)",85 % of control
same,T/C,[8],48 % of control
same,T/C,"dose: 113.0 mg/kg/injection, schedule: Q01DX011 (ip), vehicle: methylcellulose (MC)",31 % of control
same,T/C,"dose: 225.0 mg/kg/injection, schedule: Q01DX011 (ip), vehicle: carboxymethylcellulose (CMC)",12 % of control
same,T/C,[2],8 % of control
same,T/C,"dose: 450.0 mg/kg/injection, schedule: Q01DX011 (ip), vehicle: carboxymethylcellulose (CMC)",7 % of control
Ic1ncnc2c1ncn2C1CCCCO1 (stereo not drawn),T/C,"dose: 5.0 mg/kg/injection, schedule: Q01DX011 (ip), vehicle: other",123 % of control
same,T/C,"dose: 10.0 mg/kg/injection, schedule: Q01DX011 (ip), vehicle: other",47 % of control
same,T/C,"dose: 15.0 mg/kg/injection, schedule: Q01DX011 (ip), vehicle: other",94 % of control
same,T/C,"dose: 20.0 mg/kg/injection, schedule: Q01DX011 (ip), vehicle: other",68 % of control and 70 % of control
same,T/C,"dose: 30.0 mg/kg/injection, schedule: Q01DX011 (ip), vehicle: other",100 % of control and 76 % of control
same,T/C,"dose: 31.0 mg/kg/injection, schedule: Q01DX011 (ip), vehicle: other",14 % of control
same,T/C,"dose: 62.0 mg/kg/injection, schedule: Q01DX011 (ip), vehicle: other",14 % of control
Cc1ccc(C(=O)[O][Hg][CH2]C2COC([CH2][Hg][O]C(=O)c3ccc(C)cc3)CO2)cc1 (stereo not drawn),T/C,"dose: 6.25 mg/kg/injection, schedule: Q01DX011 (ip), vehicle: methylcellulose (MC)",101 % of control
same,T/C,[1],61 % of control
same,T/C,"dose: 50.0 mg/kg/injection, schedule: Q01DX011 (ip), vehicle: methylcellulose (MC)",38 % of control
CCSCCC(N)C(=O)O (stereo not drawn),T/C,"dose: 13.13 mg/kg/injection, schedule: Q01DX011 (ip), vehicle: carboxymethylcellulose (CMC)",171 % of control
same,T/C,"dose: 18.0 mg/kg/injection, schedule: Q01DX011 (ip), vehicle: methylcellulose (MC)",86 % of control
same,T/C,"dose: 20.5 mg/kg/injection, schedule: Q01DX011 (ip), vehicle: carboxymethylcellulose (CMC)",99 % of control
same,T/C,"dose: 26.25 mg/kg/injection, schedule: Q01DX011 (ip), vehicle: carboxymethylcellulose (CMC)",118 % of control
same,T/C,"dose: 37.5 mg/kg/injection, schedule: Q01DX011 (ip), vehicle: methylcellulose (MC)",107 % of control
same,T/C,"dose: 52.5 mg/kg/injection, schedule: Q01DX011 (ip), vehicle: carboxymethylcellulose (CMC)",121 % of control
same,T/C,"dose: 56.5 mg/kg/injection, schedule: Q01DX011 (ip), vehicle: carboxymethylcellulose (CMC)",46 % of control
same,T/C,"dose: 82.0 mg/kg/injection, schedule: Q01DX011 (ip), vehicle: carboxymethylcellulose (CMC)",65 % of control
same,T/C,"dose: 90.4 mg/kg/injection, schedule: Q01DX011 (ip), vehicle: other",156 % of control
same,T/C,"dose: 105.0 mg/kg/injection, schedule: Q01DX011 (ip), vehicle: carboxymethylcellulose (CMC)",93 % of control
same,T/C,[8],38 % of control
same,T/C,"dose: 113.0 mg/kg/injection, schedule: Q01DX011 (ip), vehicle: other",109 % of control
same,T/C,"dose: 150.66 mg/kg/injection, schedule: Q01DX011 (ip), vehicle: other",37 % of control
same,T/C,"dose: 226.0 mg/kg/injection, schedule: Q01DX011 (ip), vehicle: carboxymethylcellulose (CMC)",84 % of control
same,T/C,"dose: 226.0 mg/kg/injection, schedule: Q01DX011 (ip), vehicle: other",49 % of control
CSc1nc(S(C)(=O)=O)ncc1C,T/C,[3],86 % of control
same,T/C,[4],94 % of control
same,T/C,[5],154 % of control
